# How the values were obtained:
# [1] = test system: SN Tyrosine hydroxylase (TH) neurons; assay: TH neuron stereology and electron microscopy of SN, lentiviral α-Synuclein mice; assay type: in vivo, mouse
# Experimental: Animals were deeply anesthetized with a mixture of Xylazine and Ketamine (1:8), washed with 1× saline for 1 min and then perfused with 4% paraformaldehyde (PFA) for 15-20 min. Brains were quickly dissected out and immediately stored in 4% PFA for 24 h at […], and then transferred to 30% sucrose at […] for 48 h. Tyrosine Hydroxylase (TH) was probed (1:100) with rabbit polyclonal (AB152) antibody (Millipore) and human α-Synuclein was probed (1:100) with mouse monoclonal antibodies (Thermo Scientific) and DAB counterstained.
# These were applied by a blinded investigator using unbiased stereology analysis (Stereologer, Systems Planning and Analysis, Chester, Md.) to determine the total positive cell counts in 20 cortical fields on at least 10 brain sections (˜400 positive cells per animal) from each animal.
# Brain tissues are fixed in (1:4, v:v) 4% PFA-picric acid solution and […] overnight, then washed 3× in 0.1 M cacodylate buffer and osmicated in 1% osmium tetroxide/1.5% potassium ferrocyanide for 3 h, followed by another 3× wash in distilled water. […] Blocks are sectioned on a Leica ultracut microtome at 95 nm, picked up onto […] formvar-coated copper grids and analyzed using a Philips Technai Spirit transmission EM. […]
# [2] = test system: molecular markers of autophagy; assay: Western blot of autophagy markers, lentiviral Aβ1-42 parkin−/− mice; assay type: in vivo, mouse
# [3] = test system: Aβ1-42 plaques and intracellular Aβ1-42; assay: Plaque and intracellular Aβ1-42 staining, lentiviral Aβ1-42 wild type mice; assay type: in vivo, mouse
# Experimental: Immunohistochemistry was performed on 20 micron-thick 4% paraformaldehyde (PFA) fixed cortical brain sections. Aβ1-42 was probed (1:200) with rabbit polyclonal specific anti-Aβ1-42 antibody (Zymed) that recognizes a.a.1-42, and (1:200) mouse monoclonal antibody (4G8) that recognizes amino acid 17-24 (Covance) and counterstained with DAPI. Parkin was immunoprobed (1:200) with mouse anti-parkin (PRK8) antibody that recognizes amino acid 399-465 (Signet Labs, Dedham, Mass.) and rabbit polyclonal (1:200) anti-parkin (AB5112) antibody that recognizes amino acid 305-622 (Millipore) and counterstained with DAPI. Mouse monoclonal (6E10) antibody (1:100) with DAB were used (Covance) and thioflavin-S was performed according to manufacturer's instructions (Sigma).
# Stereological methods were applied by a blinded investigator using unbiased stereology analysis (Stereologer, Systems Planning and Analysis, Chester, Md.) as described in (20,36).
# [4] = test system: human Tau, Aβ1-42, α-synuclein; assay: M17 cells transfected with Tau cDNA: Tau, Aβ1-42, α-synuclein; assay type: cell-based
# Experimental: Cell culture experiments are referenced below and explained in Burns et al. (Human Molecular Genetics. 2009) and Rebeck et al. (J. Biol. Chem. 2010, 285:7440-7446). Additional details are provided in the brief description of the figures.
# In other experiments, M17 cells transfected with Tau cDNA were treated with Nilobinib and Tubacin (an HDAC6 inhibitor).
# [5] = test system: autophagic vacuoles and lysosomes; assay: Subcellular fractionation and ELISA, lentiviral Tau±Aβ1-42 mice; assay type: in vivo, mouse
# Experimental: Brain tissues were fractionated to isolate AVs and human specific ELISA was performed to determine Aβ1-42 contents. […] It was also observed that autophagic clearance is parkin-dependent.
# Brain tissues were fractionated to isolate AVs and mouse specific ELISA was performed to determine protein contents.
# Brain tissues were fractionated to isolate AVs and human specific ELISA was performed to determine protein contents.
# 0.5 g of Frozen human or animal brains were homogenized at low speed (Cole-Palmer homogenizer, LabGen 7, 115 Vac) in 1×STEN buffer and centrifuged at 1,000 g for 10 minutes to isolate the supernatant from the pellet. The pellet was re-suspended in 1×STEN buffer and centrifuged once to increase the recovery of lysosomes. The pooled supernatants were then centrifuged at 100,000 rpm for 1 hour at 4° C. to extract the pellet containing autophagic vacuoles (AVs) and lysosomes. The pellet was then re-suspended in 10 ml (0.33 g/ml) 50% Metrizamide and 10 ml in cellulose nitrate tubes. A discontinuous Metrizamide gradient was constructed in layers from bottom to top as follows: 6 ml of pellet suspension, 10 ml of 26%; 5 ml of 24%; 5 ml of 20%; and 5 ml of 10% Metrizamide (Marzella et al., 1982). After centrifugation at 10,000 rpm for 1 hour at 4° C., the fraction floating on the 10% layer (Lysosome) and the fractions banding at the 24%/20% (AV 20) and the 20%/10% (AV10) Metrizamide inter-phases were collected by a syringe and examined.
# Animal brains were homogenized at low speed (Cole-Palmer homogenizer, LabGen 7, 115 Vac) in 1×STEN buffer and centrifuged at 1,000 g for 10 minutes to isolate the supernatant from the pellet. The pellet was re-suspended in 1×STEN buffer and centrifuged once to increase the recovery of lysosomes. The pooled supernatants were then centrifuged at 100.000 rpm for 1 hour at […] to extract the pellet containing autophagic vacuoles (AVs) and lysosomes. The pellet was then re-suspended in 10 ml (0.33 g/ml) 50% Metrizamide and 10 ml in cellulose nitrate tubes. […]
structure (smiles),measurement,setting,value
Cc1cn(-c2cc(NC(=O)c3ccc(C)c(Nc4nccc(-c5cccnc5)n4)c3)cc(C(F)(F)F)c2)cn1 [Nilotinib],TH+ neurons (by stereology),[1]; lentiviral α-Synuclein mice + Nilotinib,82 % of LacZ level
same,autophagic vacuoles in SN neurons (transmission electron microscopy),"[1]; lentiviral α-Synuclein mice, Nilotinib treatment",appearance of larger AVs
same,Atg12 and Atg5 levels (WB),[2],not changed
same,LC3-II (WB),[2],did not clear
same,plaque size,[3]; Aβ1-42 wild type mice + Nilotinib (DMSO around 48 μm),5 μm
same,plaque formation,"[3]; Aβ1-42 wild type mice, Nilotinib daily for 3 weeks",eliminates plaque formation
same,Aβ1-42 positive cells (stereological counting),"[3]; Aβ1-42 wild type mice, Nilotinib treated",5200 cells
same,intracellular Aβ1-42 accumulation (cortex),"[3]; lentiviral Aβ1-42 injected mice, Nilotinib",eliminated Aβ1-42 accumulation
same,human Aβ1-42,[4],decrease
same,human Tau,[4],decrease
same,α-synuclein,[4],decrease
same,"autophagic clearance of p-Tau ser 396, human specific ELISA","[5]; lentiviral Tau±Aβ1-42 mice, 10 mg/kg Nilotinib or 5 mg/Kg Bosutinib daily 3 weeks",enhances autophagic clearance
same,autophagic clearance of Aβ1-42 (deposition in AV-20 and lysosome),"[5]; lentiviral Tau±Aβ1-42 mice, IP 10 mg/kg Nilotinib daily 3 weeks",enhances autophagic clearance
same,"autophagic clearance of p-Tau ser 396, mouse specific ELISA","[5]; lentiviral human Tau±Aβ1-42 mice, IP 10 mg/kg Nilotinib daily 3 weeks",enhances autophagic clearance

# Source: patent US10709704B2, “Treating neural disease with tyrosine kinase inhibitors” (GEORGETOWN UNIVERSITY, priority 2012, dated 2020)
